Experimental data from PubChem BioAssay (NCI).
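Five concentrations, 48 hours, 96-well plates. TGI: total growth inhibition.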

What was measured:
Test in all cases: NCI-60 cell line screen, 48 h
[1] = test system: HCT-116 colon
[2] = test system: SK-MEL-2 melanoma
[3] = test system: ACHN renal
[4] = test system: OVCAR-3 ovarian
[5] = test system: COLO 205 colon
[6] = test system: MOLT-4 leukemia
[7] = test system: MDA-N
[8] = test system: HCC-2998 colon
[9] = test system: HT29 colon
[10] = test system: M14 melanoma
[11] = test system: 786-0 renal
[12] = test system: HOP-92 NSCLC

Measured: TGI

Cc1ccc(-c2cc(N)n(-c3nc4c(c(=O)n(C)c(=O)n4C)n3C)n2)cc1
> 100 µM: all assays above

CC1CCOc2ccc(cc2)C=Nc2ccc(cc2)CCc2ccc(cc2)N=Cc2ccc(cc2)OCC1 (configuration not stated)
> 100 µM: all assays above

CC1=NN(c2ccc(S(=O)(=O)O)cc2)C2(C1)SCC(=O)N2c1nc2ccccc2s1 (configuration not stated)
> 100 µM: all assays above

COc1ccc(Nc2nc(NS(=O)(=O)c3cc(C)c(Cl)cc3S)n[nH]2)cc1
> 100 µM: all assays above

CN(O)C(=O)c1cccc(Cl)c1
> 100 µM: all assays above

COC(=O)C1=CC(=O)OC1(OO)c1ccccc1 (configuration not stated)
> 100 µM: all assays above
